Data from article PMC13352219, “Analysis of glutamine synthetase target‐site mutations and their role in endowing glufosinate‐ammonium resistance” (Pest Management Science, 2026).

Legend:
Format in all cases: biochemical
[1] = tested on: Amaranthus palmeri cytosolic GS1.1 R38E; experiment: GS enzyme inhibition assay, GS1.1 R38E
Experimental: (§1) GS activity was determined spectrophotometrically following the Sigma‐Aldrich enzymatic assay protocol. The reaction couples the ATP‐dependent conversion of L‐glutamate and ammonium to L‐glutamine with pyruvate kinase (PK) and L‐lactate dehydrogenase (LDH), such that oxidation of β‐NADH to β‐NAD^+ can be monitored at 340 nm. Recombinant GS from A. palmeri was expressed in E. coli, purified by affinity chromatography, and quantified by the Bradford method using bovine serum albumin as standard. […] Reaction mixtures were equilibrated to 37°C and initiated by the addition of enzyme, and the decrease in absorbance at 340 nm was recorded for 5–10 min; only the linear portion of the curve was used for activity calculations. […] Activity was calculated using an extinction coefficient for NADH of 6.22 mM^−1 cm^−1 and expressed as units per mg protein, where one unit corresponds to the formation of 1 μmol of L‐glutamine in […] at pH 7.1 and 37 °C. […] Percent inhibition was calculated relative to untreated (positive) and no‐enzyme (negative) controls. […] Resistance factors were calculated by dividing the IC₅₀ of each mutant variant by that of wild‐type GS.

[2] = tested on: Amaranthus palmeri cytosolic GS1.1 Y55L; experiment: GS enzyme inhibition assay, GS1.1 Y55L
Experimental: as §1

[3] = tested on: Amaranthus palmeri cytosolic GS1.1 E131A; experiment: GS enzyme inhibition assay, GS1.1 E131A
Experimental: as §1

[4] = target: Eleusine indica GS1.1 S59G; experiment: GS enzyme inhibition assay, ELEIN GS1.1 S59G
[5] = tested on: Amaranthus palmeri cytosolic GS1.1 E69L; experiment: GS enzyme inhibition assay, GS1.1 E69L
Experimental: as §1

[6] = tested on: Amaranthus palmeri cytosolic GS1.1 R291S; experiment: GS enzyme inhibition assay, GS1.1 R291S
Experimental: as §1

[7] = tested on: Amaranthus palmeri cytosolic GS1.1 D56S; experiment: GS enzyme inhibition assay, GS1.1 D56S
Experimental: as §1

[8] = tested on: Amaranthus palmeri cytosolic GS1.1 H249L; experiment: GS enzyme inhibition assay, GS1.1 H249L
Experimental: as §1

[9] = tested on: Amaranthus palmeri cytosolic GS1.1 Y158A; experiment: GS enzyme inhibition assay, GS1.1 Y158A
Experimental: as §1

[10] = tested on: Amaranthus palmeri cytosolic GS1.1 D56C; experiment: GS enzyme inhibition assay, GS1.1 D56C
Experimental: as §1

[11] = tested on: Amaranthus palmeri cytosolic GS1.1 C159H; experiment: GS enzyme inhibition assay, GS1.1 C159H
Experimental: as §1

[12] = target: Amaranthus palmeri cytosolic GS1.1 G245P; experiment: GS enzyme inhibition assay, GS1.1 G245P; conditions: read-out: Glufosinate‐ammonium IC50
Experimental: as §1

[13] = tested on: Amaranthus palmeri cytosolic GS1.1 E297Q; experiment: GS enzyme inhibition assay, GS1.1 E297Q
Experimental: as §1

[14] = tested on: Amaranthus palmeri cytosolic GS1.1 A163Y; experiment: GS enzyme inhibition assay, GS1.1 A163Y
Experimental: as §1

[15] = tested on: Amaranthus palmeri cytosolic GS1.1 E297A; experiment: GS enzyme inhibition assay, GS1.1 E297A
Experimental: as §1

[16] = tested on: Amaranthus palmeri cytosolic GS1.1 S58M; experiment: GS enzyme inhibition assay, GS1.1 S58M
Experimental: as §1

[17] = tested on: Amaranthus palmeri cytosolic GS1.1 E131D; experiment: GS enzyme inhibition assay, GS1.1 E131D
Experimental: as §1

[18] = tested on: Amaranthus palmeri cytosolic GS1.1 T60Q; experiment: GS enzyme inhibition assay, GS1.1 T60Q
Experimental: as §1

[19] = read-out: Glufosinate‐ammonium IC50

For `CP(=O)(O)CCC(N)C(=O)O` (stereo not shown) [Glufosinate‐ammonium], the “Resistance index (RI)” value ([1]; IC50 variant / IC50 WT) was 0.2, the IC50 [1, 19] was 4.8 µM and the “Resistance index (RI)” value ([2]; IC50 variant / IC50 WT) was 0.8. For the same compound, the IC50 [2, 19] was 17 µM, the “Glufosinate‐ammonium % Inhibition at saturation 10 000 μM” value (shortened to “Glufosinate‐ammonium % Inhibition”) ([3]; 10 000 μM) was 8.5% and the IC50 [3, 19] was over 10000 µM. For the same compound, the IC50 [4] was 19 µM, the “Resistance index (RI)” value ([5]; IC50 variant / IC50 WT) was 11.4 and the IC50 [5, 19] was 246 µM. For the same compound, the “Glufosinate‐ammonium % Inhibition” value ([6]; 10 000 μM) was 0.3%, the IC50 [6, 19] was over 10000 µM and the “Resistance index (RI)” value ([7]; IC50 variant / IC50 WT) was 2.6. For the same compound, the IC50 [7, 19] was 56 µM, the “Glufosinate‐ammonium % Inhibition” value ([8]; 10 000 μM) was 7.8% and the IC50 [8, 19] was over 10000 µM. The “Resistance index (RI)” value ([9]; IC50 variant / IC50 WT) was 64.6, the IC50 [9, 19] was 1400 µM and the “Resistance index (RI)” value ([10]; IC50 variant / IC50 WT) was 0.2. The IC50 [10, 19] was 3.9 µM, the “Resistance index (RI)” value ([11]; IC50 variant / IC50 WT) was 186.5 and the IC50 [11, 19] was 4050 µM. The IC50 [12] was 247 µM, the “Resistance index (RI)” value ([13]; IC50 variant / IC50 WT) was 0.0 and the IC50 [13, 19] was 0.6 µM. The “Resistance index (RI)” value ([14]; IC50 variant / IC50 WT) was 2.5, the IC50 [14, 19] was 54 µM and the “Resistance index (RI)” value ([15]; IC50 variant / IC50 WT) was 0.3. The IC50 [15, 19] was 6.9 µM, the “Resistance index (RI)” value ([16]; IC50 variant / IC50 WT) was 4.3 and the IC50 [16, 19] was 94 µM. The “Glufosinate‐ammonium % Inhibition” value ([17]; 10 000 μM) was 48%, the IC50 [17, 19] was over 10000 µM and the “Resistance index (RI)” value ([18]; IC50 variant / IC50 WT) was 16.9. It also gave an IC50 [18, 19] of 366 µM.
